The values below come from US5563155A, “Individual stereosiomers of 7-[3-(aminoalkyl)-1-pyrrolidinyl]-quinolones and naphthyridones as antibacterial agents” (Warner-Lambert Company, priority 1995, dated 1996).

Values after ≈ are worked out from the molar mass of the structure shown. Counter-ions that a name gives are not always drawn. Like-named read-outs stand apart in the source and are kept apart here.

One series has as its system Pseud. aeruginosa UI-18. Kind of series: in vitro antibacterial activity, microtitration dilution (MIC), Pseud. aeruginosa UI-18. It counts as cell-based. Conditions: Pseudomonas aeruginosa, UI18, read-out: minimum inhibiting concentration (MIC). A digest of the protocol:
(§1)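 Readout: lowest compound concentration inhibiting growth (MIC, μg/mL), measured by serial dilution in microtitration format.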

Series [1] has as its system Esch. coli Vogel. Kind of series: median protective dose in mice given lethal systemic infections, Esch. coli Vogel. It is filed as in vivo. Conditions: Escherichia coli, single dose at time of challenge, read-out: median protective dose (PD50). On the procedure: (§2) The in vivo activity is obtained when the compounds are tested according to the procedure of Miller, et al (Proc. Soc. Exp. Biol. Med. 57, 261, 1944). The median protective dose (PD50) was determined in mice given lethal systemic infections. Single doses of compound were given at time of challenge.
(§3) By use of the above methods, the following minimum inhibiting concentration values (MICs in μg/mL), PD50 's in mg/kg, no effect phototoxicity dose in mg/kg and the cytotoxicity IC50 in μg/mL were obtained for representative enantiomers of the invention and compounds of the prior art as shown in the table.
(§4) The in vivo data as PD50 s are reported below the line of MICs for the same compound.

Series [2] in a line: cytotoxicity, hamster V-79 cells, colony reduction. It is filed as cell-based. The note with it: 3 hours treatment, colonies counted after 5 days, read-out: Cytotox (cytotoxicity IC50). On the procedure: The cytotoxicity data is obtained using hamster V-79 cells. The cells were suspended in tissue culture medium and grown overnight. Cells were treated with drug for 3 hours, washed free of drug and then replated, and the colonies counted after 5 days. The concentration of drug that reduced colones by 50% relative to control was recorded.
as §3

Series [3] relates to Strep. pheumoniae SV-1. The series is described as follows: median protective dose in mice given lethal systemic infections, Strep. pneumoniae SV-1. Conditions: Streptococcus pneumoniae, single dose at time of challenge, read-out: median protective dose (PD50). It is filed as in vivo. As for the experimental part: as §2, §3, §4
A further series concerns Ent. cloacae MA2646. Kind of series: in vitro antibacterial activity, microtitration dilution (MIC), Ent. cloacae MA2646. It is filed as cell-based. Conditions: Enterobacter cloacae, read-out: minimum inhibiting concentration (MIC). A digest of the protocol: as §1
In another series the test system is Staph. aureus UC-76. The series is described as follows: in vitro antibacterial activity, microtitration dilution (MIC), Staph. aureus UC-76. It counts as cell-based. Conditions: Staphylococcus aureus, UC76, read-out: minimum inhibiting concentration (MIC). A digest of the protocol: as §1
Series [4] relates to Strep. pyogenes C-203. Kind of series: in vitro antibacterial activity, microtitration dilution (MIC), Strep. pyogenes C-203. It counts as cell-based. The note with it: Streptococcus pyogenes, C203, read-out: minimum inhibiting concentration (MIC). Put shortly: as §1
For a further series, the system named is Staph. aureus H 228. The series is described as follows: in vitro antibacterial activity, microtitration dilution (MIC), Staph. aureus H 228. It counts as cell-based. Conditions: Staphylococcus aureus, H228, read-out: minimum inhibiting concentration (MIC). A digest of the protocol:
as §1

The test system of a further series is Klebs. pneumoniae MGH-2. The series is described as follows: in vitro antibacterial activity, microtitration dilution (MIC), Klebs. pneumoniae MGH-2. The note with it: Klebsiella pneumoniae, MGH2, read-out: minimum inhibiting concentration (MIC). It counts as cell-based. Put shortly:
as §1

For series [5], the system named is Strep. pheumoniae SV-1. Kind of series: in vitro antibacterial activity, microtitration dilution (MIC), Strep. pneumoniae SV-1. The note with it: Streptococcus pneumoniae, SV1, read-out: minimum inhibiting concentration (MIC). It counts as cell-based. Put shortly:
as §1

The next series relates to Prot. rettgeri M 1771. The series is described as follows: in vitro antibacterial activity, microtitration dilution (MIC), Prot. rettgeri M 1771. Conditions: Providencia rettgeri, M1771, read-out: minimum inhibiting concentration (MIC). It counts as cell-based. A digest of the protocol:
as §1

Another series concerns Strep. faecalis MGH-2. Kind of series: in vitro antibacterial activity, microtitration dilution (MIC), Strep. faecalis MGH-2. It is filed as cell-based. Conditions: Enterococcus faecalis, MGH2, read-out: minimum inhibiting concentration (MIC). A digest of the protocol: as §1
The test system of series [6] is Esch. coli Vogel. The series is described as follows: in vitro antibacterial activity, microtitration dilution (MIC), Esch. coli Vogel. It counts as cell-based. Conditions: Escherichia coli, read-out: minimum inhibiting concentration (MIC). A digest of the protocol: as §1
For series [7], the system named is Strep. pyogenes C-203. Kind of series: median protective dose in mice given lethal systemic infections, Strep. pyogenes C-203. It is filed as in vivo. Conditions: Streptococcus pyogenes, single dose at time of challenge, read-out: median protective dose (PD50). As for the experimental part: as §2, §3, §4
The next series is described as follows: in vivo. Also noted: species or system mice. Conditions: mouse, po. As for the experimental part:
The phototoxicity data is obtained using depilated mice. The compound was administered orally each day for four successive days, followed each day by 3 hours of UVA radiation. The mice were examined for any positive signs (redness, erythema) relative to control animals. The no effect dose and the 50% effect dose were determined. By use of the above methods, the following minimum inhibiting concentration values (MICs in μg/mL), PD50 's in mg/kg, no effect phototoxicity dose in mg/kg and the cytotoxicity IC50 in μg/mL were obtained for representative enantiomers of the invention and compounds of the prior art as shown in the table.

With `C[C@@H](N)[C@H]1CCN(c2cc3c(cc2F)c(=O)c(C(=O)O)cn3C2CC2)C1` [Example 1, 3S,1R-1-cyclopropyl-6-fluoro-7-[3-(1-aminoethyl)-1-pyrrolidinyl]-1,4-dihydro-4-oxo-3-quinolinecarboxylic acid], the MIC in the series on Pseud. aeruginosa UI-18 was determined as 1.5 µg/mL (≈ 4.17 µM); in the series with Ent. cloacae MA2646, 0.2 µg/mL (≈ 0.556 µM); with Staph. aureus UC-76, 0.05 µg/mL (≈ 0.139 µM); with Strep. pyogenes C-203 [4], 0.1 µg/mL (≈ 0.278 µM); in the series with Staph. aureus H 228 it was 0.4 µg/mL (≈ 1.11 µM); in the series with Klebs. pneumoniae MGH-2, 0.4 µg/mL (≈ 1.11 µM). Further, the MIC came out at 0.1 µg/mL (≈ 0.278 µM) in the series on Strep. pheumoniae SV-1 [5], 0.8 µg/mL (≈ 2.23 µM) in the series on Prot. rettgeri M 1771, 0.2 µg/mL (≈ 0.556 µM) with Strep. faecalis MGH-2 and 0.2 µg/mL (≈ 0.556 µM) with Esch. coli Vogel [6]. Also, the ED50 with Esch. coli Vogel [1] (PO) is 35 mg/kg; with Esch. coli Vogel [1] (SC), 2 mg/kg; with Strep. pheumoniae SV-1 [3] (SV1, PO) it was greater than 100 mg/kg; with Strep. pheumoniae SV-1 [3] (SV1, SC), 3 mg/kg. For the same compound, the CC50 at 3 h in series [2] was determined as 160 µg/mL (≈ 445 µM).
Take `C[C@@H](N)[C@@H]1CCN(c2cc3c(cc2F)c(=O)c(C(=O)O)cn3C2CC2)C1` [Example 4, 3R,1R-1-cyclopropyl-6-fluoro-7-[3-(1-aminoethyl)-1-pyrrolidinyl]-1,4-dihydro-4-oxo-3-quinolinecarboxylic acid]: the MIC with Pseud. aeruginosa UI-18 worked out at 1.6 µg/mL (≈ 4.45 µM); in the series with Ent. cloacae MA2646 it was 0.2 µg/mL (≈ 0.556 µM); in the series with Staph. aureus UC-76, 0.05 µg/mL (≈ 0.139 µM); in the series on Strep. pyogenes C-203 [4], 0.1 µg/mL (≈ 0.278 µM); in the series with Staph. aureus H 228, 0.2 µg/mL (≈ 0.556 µM); with Klebs. pneumoniae MGH-2, 0.4 µg/mL (≈ 1.11 µM). Further, the MIC with Strep. pheumoniae SV-1 [5] was 0.025 µg/mL (≈ 0.0696 µM); with Prot. rettgeri M 1771, 0.8 µg/mL (≈ 2.23 µM); in the series on Strep. faecalis MGH-2, 0.1 µg/mL (≈ 0.278 µM); in the series on Esch. coli Vogel [6], 0.1 µg/mL (≈ 0.278 µM). Also, the ED50 in the series with Esch. coli Vogel [1] (PO) came to 72 mg/kg; in the series with Esch. coli Vogel [1] (SC) it was 2 mg/kg; with Strep. pheumoniae SV-1 [3] (SV1, PO), 105 mg/kg; in the series on Strep. pheumoniae SV-1 [3] (SV1, SC), 2 mg/kg. Besides, the CC50 at 3 h in [2] was 140 µg/mL (≈ 390 µM).
For orientation: NOAEL means the highest dose or exposure tested at which no adverse effect was seen. As for `C[C@@H]([C@@H]1CCN(c2cc3c(cc2F)c(=O)c(C(=O)O)cn3C2CC2)C1)N(C)C` [Example 73], the MIC in the series on Pseud. aeruginosa UI-18 came out at 1.6 µg/mL (≈ 4.13 µM); in the series with Ent. cloacae MA2646 it was 0.2 µg/mL (≈ 0.516 µM); with Staph. aureus UC-76, 0.05 µg/mL (≈ 0.129 µM); in the series on Strep. pyogenes C-203 [4] it was 0.05 µg/mL (≈ 0.129 µM); in the series with Staph. aureus H 228, 0.1 µg/mL (≈ 0.258 µM); in the series on Klebs. pneumoniae MGH-2, 0.2 µg/mL (≈ 0.516 µM). In addition, the MIC stood at 0.05 µg/mL (≈ 0.129 µM) with Strep. pheumoniae SV-1 [5], 0.8 µg/mL (≈ 2.06 µM) with Prot. rettgeri M 1771, 0.1 µg/mL (≈ 0.258 µM) in the series on Strep. faecalis MGH-2 and 0.1 µg/mL (≈ 0.258 µM) in the series with Esch. coli Vogel [6]. Moreover, the ED50 was found to be 5 mg/kg with Esch. coli Vogel [1] (PO); 4 mg/kg in the series with Esch. coli Vogel [1] (SC); 4 mg/kg in the series on Strep. pyogenes C-203 [7] (C203, PO); 4 mg/kg in the series with Strep. pyogenes C-203 [7] (C203, SC). The compound further gave an NOAEL at 96 h in “in vivo” of less than 30 mg/kg.
For `CN[C@@H](C)[C@@H]1CCN(c2nc3c(cc2F)c(=O)c(C(=O)O)cn3-c2ccc(F)cc2F)C1` [Example 64, 3R,1S-1-(2,4-difluorophenyl)-6-fluoro-1,4-dihydro-7-[3-[1-(methylamino)ethyl]-1-pyrrolidinyl]-4-oxo-1,8-naphthyridine-3-carboxylic acid, monohydrochloride], the MIC turned out to be 3.1 µg/mL in the series on Pseud. aeruginosa UI-18; 0.8 µg/mL in the series on Ent. cloacae MA2646; 0.025 µg/mL in the series on Staph. aureus UC-76; 0.05 µg/mL with Strep. pyogenes C-203 [4]; 0.1 µg/mL in the series on Staph. aureus H 228; 0.8 µg/mL in the series with Klebs. pneumoniae MGH-2. Also, the MIC in the series on Strep. pheumoniae SV-1 [5] stood at 0.025 µg/mL; in the series with Prot. rettgeri M 1771 it was 1.6 µg/mL; with Strep. faecalis MGH-2, 0.2 µg/mL; with Esch. coli Vogel [6], 0.4 µg/mL. Besides, the ED50 in the series on Esch. coli Vogel [1] (PO) was determined as 5 mg/kg; in the series with Esch. coli Vogel [1] (SC) it was 2 mg/kg; with Strep. pyogenes C-203 [7] (C203, PO), 4 mg/kg; in the series on Strep. pyogenes C-203 [7] (C203, SC), 2 mg/kg. Moreover, the CC50 at 3 h in series [2] was determined as 310 µg/mL.
With `CCN[C@@H](C)[C@@H]1CCN(c2nc3c(cc2F)c(=O)c(C(=O)O)cn3-c2ccc(F)cc2F)C1` [Example 50, 3R,1S-7-[3-(1-N-ethylaminoethyl)-1-pyrrolidinyl]-1-(2,4-difluorophenyl)-6-fluoro-1,4-dihydro-4-oxo-1,8-naphthyridine-3-carboxylic acid], the MIC was 3.1 µg/mL (≈ 6.73 µM) in the series with Pseud. aeruginosa UI-18; 0.8 µg/mL (≈ 1.74 µM) in the series with Ent. cloacae MA2646; 0.013 µg/mL (≈ 0.0282 µM) with Staph. aureus UC-76; 0.1 µg/mL (≈ 0.217 µM) in the series on Strep. pyogenes C-203 [4]; 0.05 µg/mL (≈ 0.109 µM) with Staph. aureus H 228; 0.8 µg/mL (≈ 1.74 µM) with Klebs. pneumoniae MGH-2. Further, the MIC with Strep. pheumoniae SV-1 [5] came to 0.1 µg/mL (≈ 0.217 µM); in the series on Prot. rettgeri M 1771 it was 1.6 µg/mL (≈ 3.47 µM); with Strep. faecalis MGH-2, 0.2 µg/mL (≈ 0.434 µM); with Esch. coli Vogel [6], 0.4 µg/mL (≈ 0.869 µM). The ED50 was determined as 2 mg/kg with Strep. pheumoniae SV-1 [3] (SV1, PO) and 2 mg/kg in the series on Strep. pheumoniae SV-1 [3] (SV1, SC).
